Where two headings read alike, the source gives them in different places.
Columns and labels:
[1] = test system: A group red blood cells; conditions: construct 1 mg/mL, 37° C. 2 hours; wells washed 3× with PBS
Protocol: A volume of 60 μL washed A group red blood cells (RBCs) was modified by incubation with 20 μL of the dilution of the construct at 37° C. for 2 hours.
The modified RBCs were washed twice in PBS and once in Celpresol™ as described above. A 2% cell suspension of washed cells (modified or control) was prepared in Celpresol™ and cell concentration (150×10^6/mL) determined using a haemocytometer. Similarly the concentration of a suspension streptavidin beads (134×10^6/mL) was determined.
A volume of 50 μL of a suspension of RBCs was added to provide a bead to RBC ratio of c. 1:1 and incubated at room temperature for 1 hour to allow RBCs to settle.
The wells were washed 3× with PBS, aspirating the washing solution with a pipette.

[2] = test system: group 0 RBCs; conditions: construct 0.5 mg/ml
Protocol: Unmodified group A RBCs were used as a second population of cells.
Both populations of cells were incubated for 37° C. for 2 hrs in a water bath and then washed 2× in PBS and 1× in Celpresol using an Immufuge II (low, 1 min). The concentration of cells in each suspension was made up to 2% by adding 1.5 mL.
The suspensions of RBCs were mixed with avidinylated magnetic Dynabeads at an approximate ratio of RBC:bead of 1 and incubated for 10 min at room temperature on a gyrator. Samples of the first and second populations of RBCs were then mixed in equal volumes (35 μl each) in an ependorf tube for two minutes.
The contents of the ependorf were transferred to the well of a 96-well plate and a magnet was applied to the underside of the well for 1 minute. The supernatant was carefully removed with the magnet applied and without disruption of the beads. The blood grouping of the cells of the supernatants were then assessed by applying 30 μl of supernatant and 30 μl anti-A antibody to a Dynamed™ gel card. Cards were spun for 10 min in a centrifuge.

[3] = test system: RL95-2 monolayers
[4] = test system: red blood cells; assay: Avidin-Alexafluor fluorescence of RBCs modified with biotin-lipid construct; format: cell-based; design: key: 0 (no fluorescence observed); 4 (maximum fluorescence observed); conditions: for fluorescence score (Avidin-AF), RBCs: Day 0
Protocol: A stock solution of Avidin-Alexafluor (Avidin-AF) was prepared in sterile phosphate buffered saline (PBS) at a concentration of 2 mg/mL. A stock solution of biotinylated gangliocide (BioG) was prepared in sterile PBS at a concentration of 5 mg/mL.
Incubations were performed in a plastic ependorf tube of nominal volume 1.5 mL for 2 hours at 37° C. in a water bath. O group RBCs were incubated with a solution of BioG at a concentration of 0.33 mg/mL as a positive control.
Incubated RBCs were washed 3 times with PBS in a mini centrifuge. Fluorescent labeling of the washed, modified RBCs was performed by adding 10 μL of a solution of Avidin-AF at a concentration of 0.1 mg/mL. The RBCs were then incubated in the dark for 1 hour at 37° C. in a water bath and washed 3 times with PBS.
85% solution of the washed, fluorescent labeled RBCs were viewed on a slide with cover slip under a fluorescent microscope at 488 nm and photographic exposure of 1.903 (FIG. 6). The intensity of the fluorescent signal was recorded using a scoring system of 0 (no fluorescence observed) to 4 (maximum fluorescence observed).
Retention of the construct by the RBCs was assessed by incubation with Avidin-AF as before.

[5] = test system: murine embryos; assay: Avidin-Alexafluor fluorescence of murine embryos modified with biotin-lipid construct; format: cell-based
Protocol: Murine embryos (morula/early blastocyst stage, 3.5 day) were incubated in 50 microlitre microdrops in Blastassist™ culture media.
The zona pellucida of the embryos was removed by treatment with 0.5% pronase (4 minute incubation) and washing 3 times in embryo handling media prior to introduction into the microdrops. Each microdrop was equilibrated 5% CO2 at 37° C. overnight prior to introduction of the embryos.
Microdrops containing embryos and BioG were incubated for 40 minutes in 5% CO2 at 37° C.
Following incubation each group of embryos was washed 3 times in handling media and transferred to 50 microlitre microdrops containing 2 mg/ml, Avidin-AF microdrops for fluorescent labelling. The microdrops containing transferred embryos were incubated at 37° C. for 30 minutes in the dark.
Each group of embryos was then washed 3 times in handling media and mounted on a glass microscope slide for viewing. Embryos were viewed under a fluorescent microscope at 488 nm. The intensity of the fluorescence was recorded using a scoring system of 0 (no fluorescence) to 4 (maximum fluorescence).

[6] = test system: RL95-2 monolayers; remark: listed apart in the source
Protocol: The modification of monolayers of the cell line RL95-2 (established from a human endometrial adenocarcinoma (ATCC HTB CRL 1671)) in serum-free and serum-containing media was evaluated.
D-MEM/F12 (Gibco 11320-033, Invitrogen NZ) containing 1% penicillin/streptomycin (Gibco 15140-122, Invitrogen NZ) was used as a serum-free medium. D-MEM/F12 10% FBS (Gibco 10091-130, Invitrogen NZ) containing 1% penicillin/streptomycin and […] insulin (Gibco 12585-014, Invitrogen NZ) was used as a serum-containing medium.
A suspension of the cell line RL95-2 was diluted in pre-warmed serum-containing media to the required concentration e.g. 4×10^5 cells/mL. A 25 μL volume of the suspension was used to seed the required wells in a Terasaki tray so that each treatment was performed in duplicate. The plates were incubated overnight in a 5% CO2, 37° C. incubator until the monolayer was approximately 60% confluent.
Trays were incubated at 37° C., 5% CO2 for 120 min.
The cells were then washed and a 12 μl volume of a 0.1 mg/mL solution of Avidin Alexa Fluor® 488 added. The cells were then incubated at room temperature for a further 30 minutes in the dark.
The monolayers were finally washed 3 times with PBS, the trays inverted and photographed using an Olympus BX51 fluorescent microscope at 200× magnification, exposure time 475 ms (FIG. 12).

[7] = test system: spermatozoa
Protocol: Spermatozoa were washed and isolated by layering 1.1 mL of fresh semen over a gradient of SpermGrad 125 (Vitrolife 10099; 2 mL of 40% solution over 2 mL of 80% solution in a 15 mL round bottom tube) and centrifuging at 500×g for 20 min.
The bottom layer of the gradient (c. 0.7 mL was transferred to 4 mL round bottom tubes and c. 2 mL flushing (handling) media (Medicult 10840125A) added. The tube was centrifuged at 300×g for 10 min and the spermatozoa washed two more times (mixing by tube inversion).
Samples of washed spermatozoa were incubated overnight at 37° C. in a 5% CO2 atmosphere.
Open tubes were incubated at 37° C. in a 5% CO2 atmosphere prior to addition of c. 70 μL spermatozoa (c. 25×10^6/mL) to each tube and incubation for 120 min (A), 60 min (B), 30 min (C), 10 min […] and 120 min (E).
Following incubation a couple of drops of flushing media were added and the tubes centrifuged at 300×g for 5 min. The spermatozoa were washed two more times with flushing media and before being re-suspended in culture media to a final volume of 100 μL.
Streptavidin beads at a concentration of c. 6.25×10^6/100 μL were diluted 35 times in BSA plus flushing media to provide a ratio of 0.1 beads/spermatozoa when mixed in equal volume with a diluted suspension of the modified spermatozoa.
A volume of 5 μL of a diluted suspension of the modified spermatozoa was mixed on a slide with 5 μL of a diluted suspension of streptavidin beads and covered with a coverslip.
The mixture was observed under a microscope at 400× magnification.
The assessment of the attachment of streptavidin beads to modified spermatozoa is recorded in Table 27.

[8] = test system: RL95-2 cells; conditions: for Mean Fluorescence: T = 24 hr, Serum-containing

**Q.** Which results are given for Biotin-CMG(2)-Ad-DOPE?
**A.** retention of modified RBCs by streptavidin beads on magnet after washing [1]: retained; retention of modified group 0 RBCs by the magnet from mixture with unmodified group A RBCs [2]: Retention of the 0 group RBCs by the magnet was demonstrated; internalisation of Avidin Alexa Fluor 488 fluorescence ([3]; incubated at 4° C.): No internalization was observed; internalisation of Avidin Alexa Fluor 488 fluorescence ([3]; incubated at 37° C.): fluorescence starts to internalize within 4 hr; fluorescence score (Avidin-AF), RBCs ([4]; dilution 0.001 mg/ml): 0; fluorescence score (Avidin-AF), RBCs ([4]; dilution 0.01 mg/ml): 1; fluorescence score (Avidin-AF), RBCs ([4]; dilution 0.1 mg/ml): 2; fluorescence score (Avidin-AF), RBCs ([4]; dilution 1 mg/ml): 4; fluorescence score (Avidin-AF), RBCs, retention ([4]; dilution 1 mg/ml, Day 14 of storage): 4; fluorescence score (Avidin-AF), murine embryos ([5]; 0.1 mg/mL, n = 21): 2; fluorescence score (Avidin-AF), murine embryos ([5]; 1 mg/mL, n = 19): 1; fluorescence score (Avidin-AF), murine embryos ([5]; 2 mg/mL, n = 19): 1; Mean Fluorescence ([6]; 100 μg/mL, insertion time 30): 3; fluorescence of RL95-2 cell membrane, serum-free media ([6]; construct 20, 100 and 500 μg/mL): homogenous intense fluorescent signal; fluorescence of RL95-2 cell membrane, serum-containing media ([6]; same concentrations (20, 100 and 500 μg/mL)): weakened fluorescence; intensity of fluorescence versus insertion time ([6]; serum-free media): increased with increasing insertion time; Number of beads attached to spermatozoa ([7]; treatment A, incubation time 120 min, 30 min, with cross-linking): 10-15 (with; Number of beads attached to spermatozoa ([7]; treatment A, incubation time 120 min, Immediate): 10-12; Number of beads attached to spermatozoa ([7]; treatment B, incubation time 460 min, 30 min): 8; Number of beads attached to spermatozoa ([7]; treatment C, incubation time 30 min, 30 min): 3; Number of beads attached to spermatozoa ([7]; treatment C, incubation time 30 min, Immediate): 1-3; Number of beads attached to spermatozoa ([7]; treatment D, incubation time 10 min, 30 min): 1; Number of beads attached to spermatozoa ([7]; treatment D, incubation time 10 min, Immediate): 1; Mean Fluorescence ([8]; 20 μg/mL): 0; Mean Fluorescence ([8]; 100 μg/mL): 0; fluorescence 24 hr post-insertion, serum-free media ([8]; RL95-2 cells, reduced from T=0): Fluorescence was detected

Reference: patent publication US10919941B2, “Functional lipid constructs” (KODE BIOTECH LIMITED, priority 2007, dated 2021)
